Consider 15 compounds from patent US6340694B1, “Diarylbenzopyran derivatives as cyclooxygenase-2 inhibitors” (Pacific Corporation, priority 1998, dated 2002).

For one experiment, the target named is T1, COX-2 (Mus musculus, UniProt Q05769).
T1 construct: endogenous in cells; host or cells: peritoneal macrophages of C57BL/6 mouse, aspirin-pretreated, LPS-induced
T1 sequence (Q05769 18-604): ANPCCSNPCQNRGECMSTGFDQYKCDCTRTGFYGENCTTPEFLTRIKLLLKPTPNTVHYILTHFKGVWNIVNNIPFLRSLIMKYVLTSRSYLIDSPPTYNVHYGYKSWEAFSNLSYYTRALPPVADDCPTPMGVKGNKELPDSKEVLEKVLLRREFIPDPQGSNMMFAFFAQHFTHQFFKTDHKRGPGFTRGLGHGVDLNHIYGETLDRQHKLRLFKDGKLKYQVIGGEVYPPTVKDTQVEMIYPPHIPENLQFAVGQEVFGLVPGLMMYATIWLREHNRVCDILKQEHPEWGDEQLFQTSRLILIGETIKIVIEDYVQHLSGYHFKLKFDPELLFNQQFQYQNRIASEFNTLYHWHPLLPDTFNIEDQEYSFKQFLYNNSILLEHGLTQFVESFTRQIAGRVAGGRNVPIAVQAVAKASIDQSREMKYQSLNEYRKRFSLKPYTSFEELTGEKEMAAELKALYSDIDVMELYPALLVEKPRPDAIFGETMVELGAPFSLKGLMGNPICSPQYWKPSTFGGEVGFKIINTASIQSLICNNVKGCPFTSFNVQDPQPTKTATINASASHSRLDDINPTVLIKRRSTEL
In words: Evaluation of COX-2's inhibition efficacy (PGE2 radioimmuno assay, LPS-induced, aspirin-pretreated peritoneal macrophages). It counts as cell-based, C57BL/6 mouse. As for the experimental part: Regarding the compounds in the above Examples and indomethacin, the inhibition efficacy of COX-2 and COX-1 are being measured by the following two methods. […] Evaluation of COX-2's Inhibition Efficacy (J. Pharmacol. Exp. […] After cleaning C57BL/6 mouse's abdomen by 70% EtOH, the skin of mouse's abdomen was eliminated cautiously not to harm peritomeum and 5 ml of cold PBS was poured into the abdominal cavity and in certain times later macrophage-bleeding abdominal-liquid was collected by syringe. […] After putting 1 ml cell suspension having cell number of 1×10^6 cells/mu into each 24-well microtiter plates, macrophages were adhered to the bottom of plate by culturing in the condition of 5% CO2/95% O2, at a temperature of 37° C. for 2 hours. Other cells not being adhered to were eliminated by washing two times with PBS. The purity of macrophages obtained through this process was identified by differential counting. […] After inducing COX-2 by LPS, the cell culture medium was eliminated and macrophages was washed two times with PBS. And 1 ml of RRPI-1640 badge was added to each well again and after treating them with sample with appropriate concentration, they were cultured at a temperature of 37i É for 10 minutes. And then treated them with arachidonic acid to make their final concentration as 10 μM and cultured them additional 10 minutes, all the supernatant liquid of reaction was obtained. The amount of PGE2 produced in the supernatant liquid of reaction was determined by the PGE2 radioimmuno assay.

The next experiment addresses T2, COX-1 (Mus musculus, UniProt P22437).
T2 construct: there is no pre-treatment of aspirin and LPS in the adhesion of macrophage; endogenous in cells; host or cells: peritoneal macrophages of C57BL/6 mouse, without aspirin and LPS pre-treatment
T2 sequence (P22437 27-602): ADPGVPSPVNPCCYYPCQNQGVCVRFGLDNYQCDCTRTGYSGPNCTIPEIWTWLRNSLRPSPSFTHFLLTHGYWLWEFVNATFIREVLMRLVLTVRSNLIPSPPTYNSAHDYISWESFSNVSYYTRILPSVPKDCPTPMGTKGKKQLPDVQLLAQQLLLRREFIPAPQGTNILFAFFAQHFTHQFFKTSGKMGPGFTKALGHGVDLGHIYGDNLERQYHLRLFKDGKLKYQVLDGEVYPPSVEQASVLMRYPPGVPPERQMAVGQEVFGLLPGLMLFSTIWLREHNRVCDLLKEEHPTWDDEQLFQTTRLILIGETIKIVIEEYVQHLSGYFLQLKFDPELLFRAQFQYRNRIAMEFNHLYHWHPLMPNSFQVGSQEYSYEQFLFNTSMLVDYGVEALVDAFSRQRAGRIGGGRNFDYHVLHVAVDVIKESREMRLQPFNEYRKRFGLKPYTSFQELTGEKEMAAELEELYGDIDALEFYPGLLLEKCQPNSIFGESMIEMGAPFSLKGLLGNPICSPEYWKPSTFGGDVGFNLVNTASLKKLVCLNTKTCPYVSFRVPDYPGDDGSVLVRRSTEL
Kind of experiment: Evaluation of COX-1's inhibition efficacy (macrophages without aspirin and LPS pre-treatment). It counts as cell-based, C57BL/6 mouse. As for the experimental part:
Regarding the compounds in the above Examples and indomethacin, the inhibition efficacy of COX-2 and COX-1 are being measured by the following two methods.
After cleaning C57BL/6 mouse's abdomen by 70% EtOH, the skin of mouse's abdomen was eliminated cautiously not to harm peritomeum and 5 ml of cold PBS was poured into the abdominal cavity and in certain times later macrophage-bleeding abdominal-liquid was collected by syringe. By adding RPMI-1640 badge containing penicillin(100 unit/mt) and streptomycin([…]) to cell pellet obtained by centrifugation of collected liquid about 5 minutes in 1500 rpm, it was disperesed and also COX-1 existing in the cell was inactivated by treating with 500 μM aspirin. After putting 1 ml cell suspension having cell number of 1×10^6 cells/mu into each 24-well microtiter plates, macrophages were adhered to the bottom of plate by culturing in the condition of 5% CO2/95% O2, at a temperature of 37° C. for 2 hours. Other cells not being adhered to were eliminated by washing two times with PBS. The purity of macrophages obtained through this process was identified by differential counting. After adding RPMI-1640 badge(normally 5×10^5 cell/ml) containing 3% right fetal blood serum to macrophage and treating it with LPS(lipopolysaccharide) to make final concentration as 10 μg/ml, it was cultured in the condition of 5% CO2, at a temperature of 37° C. for 16 hours. After inducing COX-2 by LPS, the cell culture medium was eliminated and macrophages was washed two times with PBS. And 1 ml of RRPI-1640 badge was added to each well again and after treating them with sample with appropriate concentration, they were cultured at a temperature of 37i É for 10 minutes. And then treated them with arachidonic acid to make their final concentration as 10 μM and cultured them additional 10 minutes, all the supernatant liquid of reaction was obtained. The amount of PGE2 produced in the supernatant liquid of reaction was determined by the PGE2 radioimmuno assay. The 100% COX-2's activation is referenced by the difference of the amount of PGE2 produced in the supernatant liquid of reaction between with 10 μM arachidonic acid treatment and without 10 μM arachidonic acid treatment.
2. Evaluation of COX-1's Inhibition Efficacy
Following the same procedure as the above evaluation of COX-2's inhibition efficacy, but there is no pre-treatment of aspirin and LPS in the adhesion of macrophage.

For `COc1ccc2c(=O)c(-c3ccc(F)cc3)c(-c3ccc(S(N)(=O)=O)cc3)oc2c1` [Example 64, 2-(4-(Aminosulfonyl)phenyl)-7-methoxy-3-(4-fluorophenyl)-4H-1-benzopyran-4-one], the inhibition at 0.1 µg/mL at COX-2 (0.1 μg/ml) was under 5%. At COX-2 (1 μg/ml), the inhibition at 1 µg/mL turned out to be 52%. For the same compound, on COX-2 (10 μg/ml), the inhibition at 10 µg/mL was 47%.

As for `CS(=O)(=O)c1ccc(-c2oc3ccccc3c(=O)c2-c2cccc(Cl)c2Cl)cc1` [Example 14, 3-(2,3-Dichlorophenyl)-2-(4-(methylsulfonyl)phenyl)-4H-1-benzopyran-4-one], the inhibition at 0.1 µg/mL at COX-2 (0.1 μg/ml) amounted to 18%. At COX-2 (1 μg/ml), the inhibition at 1 µg/mL came out at 32%. Moreover, at COX-2 (10 μg/ml), the inhibition at 10 µg/mL is 71%.

For `NS(=O)(=O)c1ccc(-c2oc3ccc(F)cc3c(=S)c2-c2ccc(F)cc2)cc1` [Example 68, 2-(4-(Aminosulfonyl)phenyl)-6-fluoro-3-(4-fluorophenyl)-4H-1-benzopyran-4-thione], the inhibition at 0.1 µg/mL on COX-2 (0.1 μg/ml) was 89%. The inhibition at 1 µg/mL on COX-2 (1 μg/ml) was 100%; on COX-1 (1 μg/ml), 58%. For the same compound, the inhibition at 10 µg/mL on COX-1 (10 μg/ml) was found to be 83%.

With `NS(=O)(=O)c1ccc(-c2oc3c(Cl)ccc(O)c3c(=O)c2-c2ccc(F)cc2)cc1` [Example 66, 2-(4-(Aminosulfonyl)phenyl)-8-chloro-3-(4-fluorophenyl)-5-hydroxy-4H-1-benzopyran-4-one], the inhibition at 1 µg/mL on COX-2 (1 μg/ml) is 83%; at COX-1 (1 μg/ml), 40%. The inhibition at 10 µg/mL at COX-2 (10 μg/ml) came out at 90%; at COX-1 (10 μg/ml), 80%.

Regarding `Cc1ccccc1-c1c(-c2ccc(S(C)(=O)=O)cc2)oc2ccccc2c1=O` [Example 23, 3-(2-Methylphenyl)-2-(4-(methylsulfonyl)phenyl)-4H-1-benzopyran-4-one], on COX-2 (0.1 μg/ml), the inhibition at 0.1 µg/mL was determined as 23%. Also, the inhibition at 1 µg/mL at COX-2 (1 μg/ml) was determined as 84%. The inhibition at 10 µg/mL on COX-2 (10 μg/ml) worked out at 97%.

For the compound `NS(=O)(=O)c1ccc(-c2oc3cc(F)ccc3c(=O)c2-c2cccc(F)c2)cc1` [Example 61, 2-(4-(Aminosulfonyl)phenyl)-7-fluoro-3-(3-fluorophenyl)-4H-1-benzopyran-4-one], at COX-2 (0.1 μg/ml), the inhibition at 0.1 µg/mL is 69%. Moreover, the inhibition at 1 µg/mL was 97% at COX-2 (1 μg/ml) and 22% at COX-1 (1 μg/ml). Further, the inhibition at 10 µg/mL at COX-1 (10 μg/ml) turned out to be 38%.

As for `Cc1cccc(-c2c(-c3ccc(S(C)(=O)=O)cc3)oc3ccccc3c2=O)c1` [Example 22, 3-(3-Methylphenyl)-2-(4-(methylsulfonyl)phenyl)-4H-1-benzopyran-4-one], the inhibition at 0.1 µg/mL on COX-2 (0.1 μg/ml) was 14%. The inhibition at 1 µg/mL at COX-2 (1 μg/ml) turned out to be 82%. Also, the inhibition at 10 µg/mL on COX-2 (10 μg/ml) stood at 90%.

In the case of `CSc1ccc(-c2c(-c3ccc(S(N)(=O)=O)cc3)oc3ccccc3c2=O)cc1` [Example 56, 2-(4-(Aminosulfonyl)phenyl)-3-((4-methylthio)phenyl)-4H-1-benzopyran-4-one], the figures for the “Inhibition (%) COX-2” value at COX-2 (0.1 μg/ml), on COX-2 (1 μg/ml) and on COX-2 (10 μg/ml) were 53%, 84% and 90%, respectively. Further, the “Inhibition (%) COX-1” value is given as 77% at COX-1 (1 μg/ml) and 90% at COX-1 (10 μg/ml).

As for `NS(=O)(=O)c1ccc(-c2oc3ccccc3c(=O)c2-c2ccc3c(c2)OCO3)cc1` [Example 54, 2-(4-(Aminosulfonyl)phenyl)-3-((3,4-methylenedioxy)phenyl)-4H-1-benzopyran-4-one], the “Inhibition (%) COX-2” value is reported as 20% at COX-2 (0.1 μg/ml) and 84% at COX-2 (1 μg/ml). Further, the “Inhibition (%) COX-1” value at COX-1 (10 μg/ml) worked out at 75%.

Take `NS(=O)(=O)c1ccc(-c2oc3ccc(F)cc3c(=O)c2-c2ccccc2)cc1` [Example 47, 2-(4-(Aminosulfonyl)phenyl)-6-fluoro-3-phenyl-4H-1-benzopyran-4-one]: the inhibition at 0.1 µg/mL on COX-2 (0.1 μg/ml) stood at 23%. Besides, the inhibition at 1 µg/mL at COX-2 (1 μg/ml) was determined as 86%.

Take `NS(=O)(=O)c1ccc(-c2oc3ccccc3c(=S)c2-c2ccc(F)cc2)cc1` [Example 69, 2-(4-(Aminosulfonyl)phenyl)-3-(4-fluorophenyl)-4H-1-benzopyran-4-thione]: the inhibition at 0.1 µg/mL on COX-2 (0.1 μg/ml) was 42%. Moreover, the inhibition at 1 µg/mL stood at 98% at COX-2 (1 μg/ml) and 68% on COX-1 (1 μg/ml). Also, the inhibition at 10 µg/mL came to 100% at COX-2 (10 μg/ml) and 90% on COX-1 (10 μg/ml).

As for `NS(=O)(=O)c1ccc(-c2oc3cc(F)ccc3c(=O)c2-c2ccccc2F)cc1` [Example 60, 2-(4-(Aminosulfonyl)phenyl)-7-fluoro-3-(2-fluorophenyl)-4H-1-benzopyran-4-one], at COX-2 (0.1 μg/ml), the inhibition at 0.1 µg/mL worked out at 43%. The inhibition at 1 µg/mL on COX-2 (1 μg/ml) turned out to be 100%.

As to `NS(=O)(=O)c1ccc(-c2oc3cc(F)ccc3c(=O)c2-c2ccc(F)cc2)cc1` [Example 59, 2-(4-(Aminosulfonyl)phenyl)-7-fluoro-3-(4-fluorophenyl)-4H-1-benzopyran-4-one], on COX-2 (0.1 μg/ml), the inhibition at 0.1 µg/mL was 39%. The inhibition at 1 µg/mL at COX-2 (1 μg/ml) was found to be 100%.

On to `NS(=O)(=O)c1ccc(-c2oc3cc(F)ccc3c(=O)c2-c2ccc(Cl)c(Cl)c2)cc1` [Example 62, 2-(4-(Aminosulfonyl)phenyl)-7-fluoro-3-(3,4-dichlorophenyl)-4H-1-benzopyran-4-one], for which the inhibition at 0.1 µg/mL at COX-2 (0.1 μg/ml) stood at 89%. For the same compound, the results for the inhibition at 1 µg/mL on COX-2 (1 μg/ml) and at COX-1 (1 μg/ml) were 100% and 54%, respectively. Besides, at COX-1 (10 μg/ml), the inhibition at 10 µg/mL was 76%.

With `CS(=O)(=O)c1ccc(-c2oc3ccccc3c(=O)c2-c2cccc(Cl)c2)cc1` [Example 24, 3-(3-Chlorophenyl)-2-(4-(methylsulfonyl)phenyl)-4H-1-benzopyran-4-one], at COX-2 (0.1 μg/ml), the inhibition at 0.1 µg/mL worked out at 22%. On COX-2 (1 μg/ml), the inhibition at 1 µg/mL worked out at 86%. The inhibition at 10 µg/mL on COX-2 (10 μg/ml) was 95%.
